Where a name gives a salt, the structure may show the parent alone. Read-outs that look alike come from different tables or passages of the source.
Columns and labels:
[1] = tested on: sodium channels (sodium current INa) in rat dorsal root ganglion (DRG) cells; assay: Sodium channel assay, whole-cell patch clamp of sodium current in isolated DRG cells; type: cell-based
From the text: The effect of compounds disclosed herein on sodium channels may be evaluated in vitro to determine their blocking properties using the whole-cell patch clamp method in isolated cardiac (human atrial myocytes) and neuronal (rat dorsal root ganglion) cells. The example below refers to a sodium channel assay using neuronal cells.
Electrophysiologic patch clamp recordings of the sodium current in isolated rat dorsal root ganglion (DRG) cells were used to measure the sodium channel blocking properties of certain compounds disclosed herein. DRG cells were isolated according to the method of Blair and Bean (J Neurosci, 22: pp. 10277-10290, 2002) and plated on treated glass coverslips. For measuring the sodium current, cells were perfused with an external solution that consists of (in mmol/L): 115 TMA chloride, 10 NaCl, 5 CsCl, 1.8 CaCl2, 1.2 MgCl2, 10 HEPES, 11 dextrose, pH adjusted to 7.4 with TMA-OH. The chemical composition of the internal solution was (in mmol/L): 115 CsF, 20 CsCl, 10 NaF, 10 HEPES, 5 EGTA; pH adjusted to 7.2 with CsOH. Currents were measured using the whole-cell variant of the patch clamp method (Crumb & Clarkson, Biophysical Journal, 57(3): 589, 1990). An Axopatch 1-B amplifier (Axon Instruments, Foster City, Calif.) was used for whole-cell voltage clamping. Creation of voltage clamp pulses and data acquisition were controlled by a PC running pClamp software (version 9.2, Axon Instruments). INa was elicited by a 40 ms pulse to −20 mV from a holding potential of −65 mV. Pacing rates of 0.1 and 3 Hz were examined. […]. Four concentrations of each test compound were added to the cell in a cumulative manner starting with the lowest test concentration. Each cell served as its own control and data are presented as % reduction of current amplitude achieved in the presence of drug. A nonlinear curve fitting routine was utilized to fit a three-parameter Hill equation to the results using MicroCal Origin, version 6.0 software. The equation was: […]

[2] = biological target: T1, human norepinephrine transporter (hNET) (Homo sapiens, UniProt P23975); assay: Binding affinity to human norepinephrine transporter (hNET), [3H]Nisoxetine displacement; conditions: membranes from MDCK cells expressing hNET, [3H]Nisoxetine 2 nM, read-out: NET binding, Ki
T1 construct: expressed in transfected cells; host or cells: MDCK cells
T1 sequence (P23975 whole entry): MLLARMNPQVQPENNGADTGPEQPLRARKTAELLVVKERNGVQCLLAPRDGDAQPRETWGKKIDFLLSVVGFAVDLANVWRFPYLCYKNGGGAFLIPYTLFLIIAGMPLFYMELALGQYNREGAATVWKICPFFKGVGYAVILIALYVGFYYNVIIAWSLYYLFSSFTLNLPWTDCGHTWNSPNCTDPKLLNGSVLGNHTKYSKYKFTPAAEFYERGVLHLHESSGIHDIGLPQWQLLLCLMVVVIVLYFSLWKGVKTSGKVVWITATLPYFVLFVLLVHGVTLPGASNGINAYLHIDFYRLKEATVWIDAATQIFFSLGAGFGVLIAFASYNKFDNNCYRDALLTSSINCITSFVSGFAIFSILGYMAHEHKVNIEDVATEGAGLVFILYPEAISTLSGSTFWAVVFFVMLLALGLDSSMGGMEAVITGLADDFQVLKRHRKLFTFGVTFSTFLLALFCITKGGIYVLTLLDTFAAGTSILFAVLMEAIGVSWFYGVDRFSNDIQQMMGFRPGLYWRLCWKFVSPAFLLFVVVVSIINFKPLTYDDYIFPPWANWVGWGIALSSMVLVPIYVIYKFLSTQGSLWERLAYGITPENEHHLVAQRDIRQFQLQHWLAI
Description: The binding affinities of certain compounds disclosed herein to the hNET were measured using competitive radioligand displacement assays in membranes prepared from MDCK cells that express the human norepinephrine transporter. Competition binding experiments were conducted by incubating hNET membranes with [^3H] Nisoxetine (2 nM), in the presence of increasing concentrations of test compounds. Incubations were carried out at 4° C. for 60 minutes in buffer containing 50 mM Tris HCl, 120 mM NaCl and 5 mM KCl (pH 7.4). The binding reaction was terminated by rapid filtration, membranes were washed and membrane-bound radioactivity was measured using a scintillation counter. Non-specific binding was measured in the presence of excess (10 μM) clomipramine as the unlabelled ligand and this value was subtracted from the total binding to yield the specific binding at each test compound concentration.
IC50 values were obtained from non-linear regression analysis of concentration-versus specific binding plots. Ki values were calculated from the IC50 values using the Cheng Prusoff correction and experimentally determined […] values for the radioligand under these assay conditions.

[3] = biological target: T2, cloned human hERG channel (Homo sapiens, UniProt Q12809); assay: In vitro effect on hERG channels, whole-cell patch clamp in HEK cells; type: cell-based; conditions: 37 °C, read-out: IhERG, 0.1 HZ, IC50
T2 construct: expressed in transfected cells; host or cells: HEK cells
T2 sequence (Q12809 whole entry): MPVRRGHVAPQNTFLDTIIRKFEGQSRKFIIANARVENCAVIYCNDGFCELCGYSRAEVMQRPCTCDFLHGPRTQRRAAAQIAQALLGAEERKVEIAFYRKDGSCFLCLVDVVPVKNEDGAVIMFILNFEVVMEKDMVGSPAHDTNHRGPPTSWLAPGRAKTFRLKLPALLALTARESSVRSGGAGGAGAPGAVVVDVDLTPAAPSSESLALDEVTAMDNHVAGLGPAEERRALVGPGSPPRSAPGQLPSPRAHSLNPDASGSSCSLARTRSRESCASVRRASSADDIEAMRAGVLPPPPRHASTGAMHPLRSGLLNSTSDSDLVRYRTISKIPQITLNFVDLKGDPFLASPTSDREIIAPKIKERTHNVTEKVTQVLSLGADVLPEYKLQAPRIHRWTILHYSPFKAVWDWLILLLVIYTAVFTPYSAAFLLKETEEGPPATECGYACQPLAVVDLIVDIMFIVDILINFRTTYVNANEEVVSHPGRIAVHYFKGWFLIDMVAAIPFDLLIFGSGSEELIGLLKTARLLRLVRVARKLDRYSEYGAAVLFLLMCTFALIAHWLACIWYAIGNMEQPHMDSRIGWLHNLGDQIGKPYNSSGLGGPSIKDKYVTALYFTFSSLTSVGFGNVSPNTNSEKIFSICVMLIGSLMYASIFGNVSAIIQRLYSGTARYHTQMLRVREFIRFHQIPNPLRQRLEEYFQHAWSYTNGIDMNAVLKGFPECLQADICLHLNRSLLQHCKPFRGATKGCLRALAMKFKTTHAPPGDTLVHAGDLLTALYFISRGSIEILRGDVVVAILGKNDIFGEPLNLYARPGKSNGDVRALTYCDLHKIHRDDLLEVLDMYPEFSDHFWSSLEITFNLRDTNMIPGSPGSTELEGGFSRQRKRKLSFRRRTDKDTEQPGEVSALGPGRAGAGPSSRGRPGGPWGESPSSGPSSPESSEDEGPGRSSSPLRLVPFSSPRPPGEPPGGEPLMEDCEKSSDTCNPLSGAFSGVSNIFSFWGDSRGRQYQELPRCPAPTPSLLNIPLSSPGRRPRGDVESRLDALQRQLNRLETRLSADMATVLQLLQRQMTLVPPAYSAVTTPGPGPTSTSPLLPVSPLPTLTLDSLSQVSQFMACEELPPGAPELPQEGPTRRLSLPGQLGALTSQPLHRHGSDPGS
Description: Electrophysiological measurements of hERG current were made in vitro to assess the hERG block produced by certain compounds disclosed herein. hERG currents were measured in HEK cells expressing the cloned human hERG channel using the whole-cell variant of the patch clamp method. Experiments were performed at 37±1° C. An Axopatch 1-B amplifier (Axon Instruments, Foster City, Calif.) was used for whole-cell voltage clamping. Creation of voltage clamp pulses and data acquisition was controlled by a PC running pClamp software (version 9.2, Axon Instruments). After rupture of the cell membrane (entering whole-cell mode), current kinetics and amplitudes were allowed to stabilize for 3-5 minutes as the cell was dialyzed with internal solution and paced at 0.1 Hz. Cells were depolarized to +10 mV for 500 ms from a holding potential of −75 mV and peak hERG current was measured as the maximum outward deflection of the tail current elicited upon return to −40 mV (pacing rate=0.1 Hz). Four concentrations of each test compound were added to the cell in a cumulative manner starting with the lowest test concentration. Each cell served as its own control and data are presented as % reduction of current amplitude achieved in the presence of drug.
A nonlinear curve fitting routine was utilized to fit a three-parameter Hill equation to the results using MicroCal Origin, version 6.0 software. The equation was: […]

| Ki ([2]; Table 1) | Ki ([2]; Table 2) | Molecule | IC50 ([1]; Table 1, pacing rate 3 Hz) | IC50 ([3]; Table 1, pacing rate 0.1 Hz) | IC50 ([1]; Table 2, pacing rate 3 Hz) | IC50 ([3]; Table 2, pacing rate 0.1 Hz) |
| --- | --- | --- | --- | --- | --- | --- |
| 21.2 µM | – | COCCOCCOCCOCCOc1ccc2c(c1)CCc1ccccc1/C2=C/CCN(C)C [5-(3-Dimethylamino-propylidene)-10,11-dihydro-5H-dibenzo[a,d]cyclohept-Z-en-2-OmPEG4 hydrochloride salt] | 12.8 µM | 24.9 µM | – | – |
| – | 60.4 µM | COCCOCCOCCOCCOCCOCCO[C@@H]1Cc2ccccc2/C(=C\CCN(C)C)c2ccccc21 [(R)-5-(3-dimethylamino-propylidene)-10-OmPEG6-10,11-dihydro-5H-dibenzo[a,d]cyclohept-E-ene trifluoroacetate salt] | – | – | 8.1 µM | 37.9 µM |
| 37.7 µM | – | 5-(3-Dimethylamino-propylidene)-10,11-dihydro-5H-dibenzo[a,d]cyclohept-Z-en-2-OmPEG6 hydrochloride salt | 12.4 µM | 8.1 µM | – | – |
| – | 12.6 µM | COCCOCCOCCOCCO[C@H]1Cc2ccccc2/C(=C\CCN(C)C)c2ccccc21 [(S)-5-(3-dimethylamino-propylidene)-10-OmPEG4-10,11-dihydro-5H-dibenzo[a,d]cyclohept-E-ene trifluoroacetate salt] | – | – | 39.4 µM | 24.8 µM |

Source: patent publication US9090535B2, “Hydroxylated tricyclic compounds” (Nektar Therapeutics, priority 2010, dated 2015)
